Marks after values point to notes of the source that are not given here.

Assay [1] deals with GDF-15. The assay is described as follows: Serum GDF-15 by electrochemiluminescent immunoassay in placebo-controlled acute heart failure trial (Example 1). In kind it is in vivo, human. As to the method:
(§1) In an international, double-blind, placebo-controlled trial (Teerlink et al., Lancet 381:29-39 (2013)) the entire contents of which are herein incorporated by reference, patients displaying pulmonary congestion on chest radiograph and admitted to the hospital for acute heart failure were randomized to a 48 hour intravenous infusion of placebo or 30 μg/kg/d serelaxin. Time elapsed from arrival to the hospital to the intravenous administration of serelaxin was less than nine hours. […] The 48 hour infusion of serelaxin reduced cardiovascular death at 180 days ([…]). No previous intervention outcome trial in patients with acute heart failure has shown a beneficial effect on post discharge mortality.
Blood samples for biomarker analysis were collected in serum separating tubes prior to initiation of serelaxin or placebo (baseline) and at days 2, 5, 14, and 60. ‘The serum samples were centrifuged within 30 to 60 minutes of collection following visualization of a clot, frozen at −20° C. for up to four weeks, then sent on dry ice to a central laboratory for storage at −80° C. until the analysis was performed. GDF-15 was measured in the samples using a pre-commercial electrochemiluminescent immunoassay provided by Roche Diagnostics GmbH (Mannheim, Germany). All samples from the same patient were analyzed at the same time at a certified central laboratory by personnel blinded to patient treatment and study data. The reporting range for GDF-15 was 400 to 20,000 ng/L.
Multivariable linear regression models were developed for the changes in GDF-15 levels from baseline to days 2 and 14 using baseline patient clinical characteristics and routine laboratory measures; backwards elimination in the placebo, group was used, with p<0.10 as the criterion for retention in the model. Missing predictors were imputed with the treatment-group-specific median for continuous variables and mode for categorical variables. GDF-15 values were log-transformed. The linearity of associations was assessed using restricted cubic splines, and if significant non-linearity was found (at p<0.10), a dichotomized, trichotoniized, linear spline or quadratic or cubic polynomial transformation was chosen based on the univariable Akaike's Information Criterion. Adjusted R^2 values from 5-fold cross-validations are presented. The serelaxin effect on biomarker changes was then estimated in all patients with multivariable adjustment for covariates prognostic of these changes in the placebo group.

In assay [2] the test system is patients with acute heart failure. Kind of assay: Clinical outcomes in the acute heart failure trial (dyspnea, hospital stay, cardiovascular death). The class given is in vivo, human. How it is done: as §1
Changes in patient-reported dyspnea were assessed through day 5 as the area under the change from baseline in visual analog scale score through day 5, where the worst possible score was assigned following death or worsening heart failure (dyspnea VAS AUC). Reasons for rehospitalization through day 60 and causes of deaths through day 180 were adjudicated centrally by a blinded endpoint committee.

Assay [3] has the same test system. Kind of assay: Cox regression models of 180-day cardiovascular mortality in the acute heart failure trial. The class given is in vivo, human. An excerpt:
Multivariable linear regression models were developed for the changes in biomarker levels from baseline to day 2 and 14 using baseline patient clinical characteristics and routine laboratory measures; backwards elimination in the placebo group was used, with p<0.10 as the criterion for retention in the model. Missing predictors were imputed with the treatment-group-specific median for continuous variables and mode for categorical variables. GDF-15 values were log-transformed. To allow consistency and comparability of models with and without biomarkers, missing follow-up biomarker levels were imputed using linear interpolation or as last observation carried forward if no following measure was available. The linearity of associations was assessed using restricted cubic splines, and if significant non-linearity was found (at p<0.10), a dichotomized, trichotomized, linear spline or quadratic or cubic polynomial transformation was chosen based on the univariable Akaike's Information Criterion. The serelaxin effect on GDF-15 changes was then estimated with multivariable adjustment for covariates prognostic of these changes in the placebo group.
Associations of baseline biomarker values and changes with clinical outcomes were estimated with linear regression for dyspnea VAS AUC, and with Cox regression models for 60-day rehospitalization for heart failure or renal failure or cardiovascular death and for 180-day cardiovascular mortality. Linearity of associations of GDF-15 values with outcomes was assessed as above. Mean changes in biomarkers over time were estimated from repeated measures analysis of variance models, with no imputation for missing values.

In assay [4] the test system is GDF-15. The assay is described as follows: GDF-15 in the pulmonary hemodynamic study, 20 hour infusion (Example 2). In kind it is in vivo, human. As to the method:
(§2) In a separate study, the pulmonary hemodynamic effects (e.g., the pulomonary load) of serelaxin were evaluated in patients hospitalized with acute heart failure (Ponikowski et al., Eur Heart J 35:431-441 (2014)). Patients were randomized 1:1 to serelaxin or placebo, initially stabilized, then infused with serelaxin at a dose of 30 ug/kg/d for 20 hours. Pulmonary congestion at the time of presentation was a required inclusion criterion. Time elapsed from hospital admission to the beginning of intravenous infusion of serelaxin was less than 29 hours. Serelaxin exerted rapid hemodynamic effects; changes were detected within the first 30 minutes of infusion and were sustained throughout the treatment period. Serelaxin reduced the time weighted average pulmonary capillary wedge pressure from baseline in the first eight hours of treatment (p=0.0001) as well as during hours 8-20 (p=0.03).
GDF-15 was measured in blood samples collected in serum separating tubes. The serum samples were centrifuged within two hours and plasma was stored at −20° C. or lower, followed by storage at −80° C. until the analysis was performed. GDF-15 was measured using a pre-commercial electrochemiluminescent immunoassay provided by Roche Diagnostics GmbH (Mannheim, Germany). All samples from the same patient were analyzed at the same time at a certified central laboratory by personnel blinded to patient treatment and study data.

In assay [5] the test system is patients hospitalized with acute heart failure. The assay is described as follows: Pulmonary hemodynamic effects in patients hospitalized with acute heart failure (Example 2). In kind it is in vivo, human. As to the method: as §2
(§3) Pulmonary capillary wedge pressure (PCWP), mean pulmonary artery pressure (PAP), and pulmonary vascular resistance (PVR) were measured as well as NTproBNP and GDF-15 An analysis was performed of the association of GDF-15 and NTproBNP with these hemodynamic indices.

In assay [6] the test system is NTproBNP. The assay is described as follows: NTproBNP in the pulmonary hemodynamic study (Example 2). The class given is in vivo, human. To be noted: 20 hour infusion; p=0.037. As to the method: as §2, §3
Assay [7] deals with patients with acute heart failure. As to conditions: Phase 3 trial in acute heart failure (Teerlink et al.); cited from earlier work.
The subject of assay [8] is GDF-15. To be noted: patients with symptomatic heart failure (Anand et al.); cited from earlier work.
In assay [9] the test system is B-type natriuretic peptide. To be noted: patients with symptomatic heart failure (Anand et al.); cited from earlier work.
Where [10] appears, read: 30 ug/kg/d infusion for 20 hours.

On to Serelaxin, for which the “GeoMean GDF-15” value in [1] (Baseline (before start of infusion)) turned out to be 4380.3 ng/L; in [1] (Day 2, 48 hour iv infusion 30 μg/kg/d), 3395.6 ng/L; in assay [1] (Day 5, 48 hour iv infusion 30 μg/kg/d), 3690.3 ng/L; in [1] (Day 14, 48 hour iv infusion 30 μg/kg/d), 3397.0 ng/L; in [1] (Day 60, 48 hour iv infusion 30 μg/kg/d) it was 3114.0 ng/L. Also, the “Median GDF-15” value in assay [1] (Baseline (before start of infusion), serelaxin group n = 530) stood at 4115.5 ng/L; in assay [1] (Day 2, 48 hour iv infusion 30 μg/kg/d, n = 530), 3341.0 ng/L; in assay [1] (Day 5, 48 hour iv infusion 30 μg/kg/d, n = 530), 3584.5 ng/L; in [1] (Day 14, 48 hour iv infusion 30 μg/kg/d, n = 530), 3296.0 ng/L; in [1] (Day 60, 48 hour iv infusion 30 μg/kg/d, n = 530), 2981.5 ng/L. Besides, the “GDF-15 GeoMean Change vs Baseline” value in [1] (Day 2) is −21.6%*; in assay [1] (Day 5), −14.95* %; in assay [1] (Day 14), −20.2%*; in [1] (Day 60) it was −26.4%*. The “GDF-15 levels versus placebo, both in addition to standard of care” value in assay [1] (day 14) is recorded as “approached statistical significance”; in assay [1] (days 2 and 5), “significantly lower”. The GDF-15 level result in assay [1] (day 60) is “trend towards lower”. In addition, in [1] (to day 14), the “decrease in GDF-15” value is “faster decrease”. For the same compound, the “cardiovascular death at 180 days” value in assay [2] (48 hour infusion, p=0.28) is reported as “reduced”. For the same compound, the patient-reported general well-being result in assay [2] (48 hour iv infusion 30 μg/kg/d) is listed as “improvements”. The “primary dyspnea efficacy endpoint, Visual Acuity Scale area under the curve” value in [2] (48 hour iv infusion 30 μg/kg/d vs placebo, p=0.007) was “significantly improved”. In addition, the “reduction of time in the intensive care or coronary care unit” value in [2] (vs placebo, p=0.03) is listed as 0.4 days. The “reduction of average length of hospital stay” value in assay [2] (vs placebo, p=0.04) is listed as 0.9 days. Also, the “HR, CV death through Day 180” value in assay [3] (adjusted for baseline GDF-15 and change in GDF-15 from baseline to Day 2) is 0.832; in [3] (adjusted for baseline GDF-15 and change in GDF-15 from baseline to Day 14, N = 1037), 0.847; in assay [3] (adjusted for change in GDF-15 from baseline to Day 2 and multivariable predictors of outcome) it was 0.763; in assay [3] (adjusted for change in GDF-15 from baseline to Day 14 and multivariable predictors of outcome, N = 1037), 0.753. For the same compound, the “hazard ratio for 180-day CV mortality” value in assay [3] (multivariable adjustment for baseline covariates, without GDF-15 change, 95% CI 0.430-1.028) was 0.665; in [3] (unadjusted for other baseline covariates, 95% CI 0.403-0.950), 0.619. Also, the “GDF-15 levels versus placebo” value in assay [4] (setting [10]) was “significantly decreased”. Also, in assay [4] (setting [10]), the “reduction of GDF-15 geo-mean from baseline” value is given as 16%. For the same compound, in assay [4] (30 ug/kg/d infusion for 20 hours, p=0.0204), the “GDF-15 treatment difference in favor of serelaxin versus placebo” value is listed as 18%. In assay [4] (baseline, serelaxin group), the baseline median GDF-15 was 3260 ng/L. Also, the pulmonary vascular resistance result in assay [5] (30 ug/kg/d infusion) is recorded as “concomitant decrease”. The systemic vascular resistance result in assay [5] (30 ug/kg/d infusion) is listed as “concomitant decrease”. The “time weighted average pulmonary capillary wedge pressure from baseline” value was “reduced” in [5] (first eight hours of treatment, p=0.0001) and “reduced” in [5] (hours 8-20, p=0.03). Further, in assay [5] (from start of infusion, sustained throughout the treatment period), the “time until hemodynamic changes were detected” value is at most 30 min. Further, in assay [5] (over the 20 hour infusion period, all p values <0.005), the “improvements in PCWP, PAP and PVR compared to placebo” value is recorded as “favored serelaxin”. The “systolic and diastolic pulmonary arterial pressure” value in assay [5] (p=0001 at four hours) is recorded as “significantly lowered”. For the same compound, the NTproBNP entry in assay [6] was “significantly reduced”. In addition, in assay [7], the dyspnea result is given as “rapid relief”. Moreover, the “mortality at six months” value in assay [7] was “reduced”.

In the case of `CCCCC(=O)N(Cc1ccc(-c2ccccc2-c2nnn[nH]2)cc1)[C@H](C(=O)O)C(C)C` [Valsartan], the “effect on GDF-15” value in [8] was “no effect”. Moreover, the “heart failure biomarker B-type natriuretic peptide” value in assay [9] was “lower”.

Source of the values: US20190022189A1, “USE OF SERELAXIN TO REDUCE GDF-15” (NOVARTIS AG, priority 2014, published 2019).
